The series relates to CCRIS mutagenicity, Ames/micronucleus/aberration tests. The series is described as follows: CCRIS mutagenicity studies.
The mark [1] stands for this setting: Test System: AMES SALMONELLA TYPHIMURIUM, Strain/Indicator: TA98, Metabolic Activation: NONE, Method: PREINCUBATION
The mark [2] stands for this setting: Test System: AMES SALMONELLA TYPHIMURIUM, Strain/Indicator: TA98, Metabolic Activation: NONE, Method: STANDARD PLATE.
Where [3] appears, read: Test System: AMES SALMONELLA TYPHIMURIUM, Strain/Indicator: TA100, Metabolic Activation: NONE, Method: PREINCUBATION
Where [4] appears, read: Test System: AMES SALMONELLA TYPHIMURIUM, Strain/Indicator: TA100, Metabolic Activation: RAT, LIVER, S-9, AROCLOR 1254, Method: PREINCUBATION

Consider eight compounds from PubChem BioAssay AID1259407 (Chemical Carcinogenesis Research Information System (CCRIS), 2018).

Molecules are shown by their SMILES. Active and inactive are the calls of the source. The rule behind the calls is not given here.

Consider `Nc1cc2ccccc2c2ccccc12`, for which the mutagenic call (Test System: AMES SALMONELLA TYPHIMURIUM, Strain/Indicator: TA98, Metabolic Activation: RAT, LIVER, S-9, AROCLOR 1254 (2 OR 4%), Method: STANDARD PLATE) was “active; positive”; the mutagenic call (Test System: AMES SALMONELLA TYPHIMURIUM, Strain/Indicator: TA100, Metabolic Activation: RAT, LIVER, S-9, AROCLOR 1254 (4%), Method: STANDARD PLATE) is “active; positive”; the mutagenic call (Test System: AMES SALMONELLA TYPHIMURIUM, Strain/Indicator: TA1535, Metabolic Activation: RAT, LIVER, S-9, AROCLOR 1254 (4%), Method: STANDARD PLATE) is “active; positive”; the mutagenic call (Test System: AMES SALMONELLA TYPHIMURIUM, Strain/Indicator: TA1537, Metabolic Activation: RAT, LIVER, S-9, AROCLOR 1254 (4%), Method: STANDARD PLATE) is “active; positive”.

With `O=C(O)/C=C/c1cccc([N+](=O)[O-])c1`, the mutagenic call is, setting by setting: under setting [1], “inactive; negative”; under setting [2], “inactive; negative”; (Test System: AMES SALMONELLA TYPHIMURIUM, Strain/Indicator: TA98, Metabolic Activation: RAT, LIVER, S-9, AROCLOR 1254, Method: STANDARD PLATE) “inactive; negative”; under setting [3], “active; positive”; (Test System: AMES SALMONELLA TYPHIMURIUM, Strain/Indicator: TA100, Metabolic Activation: NONE, Method: STANDARD PLATE) “active; positive”; under setting [4], “active; positive”. For the same compound, the mutagenic call (Test System: AMES SALMONELLA TYPHIMURIUM, Strain/Indicator: TA100, Metabolic Activation: RAT, LIVER, S-9, AROCLOR 1254, Method: STANDARD PLATE) is “inactive; negative”; the mutagenic call (Test System: AMES SALMONELLA TYPHIMURIUM, Strain/Indicator: TA1535, Metabolic Activation: NONE, Method: PREINCUBATION) was “active; positive”; the mutagenic call (Test System: AMES SALMONELLA TYPHIMURIUM, Strain/Indicator: TA1537, Metabolic Activation: NONE, Method: PREINCUBATION) was “inactive; negative”; the mutagenic call (Test System: AMES SALMONELLA TYPHIMURIUM, Strain/Indicator: TA1538, Metabolic Activation: NONE, Method: PREINCUBATION) is “inactive; negative”.

Regarding `O=c1c2ccccc2[nH]c2occc12`, the mutagenic call by setting is: under setting [2], “inactive; negative”; (Test System: AMES SALMONELLA TYPHIMURIUM, Strain/Indicator: TA98, Metabolic Activation: RAT LIVER S-9, PHENOBARTITAL, Method: STANDARD PLATE) “inactive; negative”.

As to `Cc1cccs1`, the mutagenic call was “inactive; negative” under setting [1]; “inactive; negative” (Test System: AMES SALMONELLA TYPHIMURIUM, Strain/Indicator: TA98, Metabolic Activation: RAT, LIVER, S-9, AROCLOR 1254, Method: PREINCUBATION); “inactive; negative” under setting [3]; “inactive; negative” under setting [4]; “inactive; negative” (Test System: AMES SALMONELLA TYPHIMURIUM, Strain/Indicator: TA102, Metabolic Activation: NONE, Method: PREINCUBATION); “inactive; negative” (Test System: AMES SALMONELLA TYPHIMURIUM, Strain/Indicator: TA102, Metabolic Activation: RAT, LIVER, S-9, AROCLOR 1254, Method: PREINCUBATION).

Turning to `FCC1CO1` (stereo not given), the mutagenic call was “inactive; negative” (Test System: AMES SALMONELLA TYPHIMURIUM, Strain/Indicator: TA98, Metabolic Activation: HAMSTER, LIVER, S-9, AROCLOR 1254 (30%), Method: PREINCUBATION); “inactive; negative” under setting [1]; “inactive; negative” (Test System: AMES SALMONELLA TYPHIMURIUM, Strain/Indicator: TA98, Metabolic Activation: RAT, LIVER, S-9, AROCLOR 1254 (30%), Method: PREINCUBATION); “active; positive” (Test System: AMES SALMONELLA TYPHIMURIUM, Strain/Indicator: TA100, Metabolic Activation: HAMSTER, LIVER, S-9, AROCLOR 1254 (30%), Method: PREINCUBATION); “active; positive” under setting [3]; “active; positive” (Test System: AMES SALMONELLA TYPHIMURIUM, Strain/Indicator: TA100, Metabolic Activation: RAT, LIVER, S-9, AROCLOR 1254 (30%), Method: PREINCUBATION).

Consider `O=C1OC(O)C(CCl)=C1Cl` (stereo not given), for which the mutagenic call by setting is: (Test System: AMES SALMONELLA TYPHIMURIUM, Strain/Indicator: TA97, Metabolic Activation: NONE, Method: STANDARD PLATE) “active; positive”; under setting [2], “active; positive”; (Test System: AMES SALMONELLA TYPHIMURIUM, Strain/Indicator: TA102, Metabolic Activation: NONE, Method: STANDARD PLATE) “active; positive”; (Test System: AMES SALMONELLA TYPHIMURIUM, Strain/Indicator: TA1535, Metabolic Activation: NONE, Method: STANDARD PLATE) “active; positive”; (Test System: CHINESE HAMSTER OVARY, Strain/Indicator: CHO-KTL3 (HPRT)/6-THIOGUANINE, Metabolic Activation: NONE) “active; positive”; (Test System: UDS RAT HEPATOCYTES, Strain/Indicator: THYMIDINE INCORPORATION, Metabolic Activation: NONE, Method: AUTORADIOGRAPHY) “active; positive”.

In the case of `Nc1ccc(N=Nc2cccc(N)c2N)cc1`, the mutagenic call reads like this: (Test System: AMES SALMONELLA TYPHIMURIUM, Strain/Indicator: TA98, Method: PREINCUBATION) “active; positive”; (Test System: AMES SALMONELLA TYPHIMURIUM, Strain/Indicator: TA100, Method: PREINCUBATION) “active; positive”.

Consider `COCC(O)Cn1cc([N+](=O)[O-])nc1C` (stereo not given), for which the mutagenic call reads like this: (Test System: E. COLI, Strain/Indicator: CM561 EXRA, Metabolic Activation: NONE, Method: SUSPENSION/PLATE) “active; positive”; (Test System: E. COLI, Strain/Indicator: CM561 EXRA, Metabolic Activation: RAT, LIVER, S-9, AROCLOR 1254, Method: SUSPENSION/PLATE) “inactive; negative”; (Test System: E. COLI, Strain/Indicator: CM611 UVRA EXRA, Metabolic Activation: NONE, Method: SUSPENSION/PLATE) “active; positive”; (Test System: E. COLI, Strain/Indicator: CM611 UVRA EXRA, Metabolic Activation: RAT, LIVER, S-9, AROCLOR 1254, Method: SUSPENSION/PLATE) “active; positive”.
